Some test systems named below: 786-0; SNB-75; SF-539; A549; UO-31; SK-MEL-28; SW-620; SF-295; BT-549; MCF7; KM12; UACC-62; HCC 2998; OVCAR-5; DU-145; LOX IMVI; M14; NCI-H522; UACC-257; MOLT-4.
What all share (assay): inhibition of tumour cell growth, NCI panel, 48 h

Consider ten molecules from ChEMBL document CHEMBL1201862, “PubChem BioAssay data set” (2004).

SMILES strings stand for the structures.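 Five concentrations, 48 hours, 96-well plates. Abbreviation: GI50, concentration required for 50% inhibition of growth.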 The source made the active and inactive calls. Rule as the data show it: active = GI50 up to about 1.1 µM and inactive = higher.

As to `CCC1NC(=O)C(NC(=O)c2ncccc2O)C(C)OC(=O)C(c2ccccc2)NC(=O)C2CC(=O)CCN2C(=O)C(Cc2ccccc2)N(C)C(=O)C2CCCN2C1=O` (stereo not drawn), the GI50 with 786-0, in the assay on SNB-75, in the assay on SF-539, with A549, in the assay on UO-31 and with SK-MEL-28 was > 100 µM (inactive) in each case. For the same molecule, the GI50 in the assay with SW-620, with SF-295, with BT-549, in the assay with MCF7, with KM12 and in the assay on UACC-62 was > 100 µM (inactive) throughout. For the same molecule, the GI50 in the assay on HCC 2998, in the assay on OVCAR-5, in the assay with DU-145, in the assay on LOX IMVI, in the assay with M14 and with NCI-H522 was > 100 µM (inactive) in each case. Also, the GI50 with UACC-257 is > 100 µM (inactive).

On to `O=C1CCC(CCc2nc3ccccc3[nH]2)(c2ccccc2)C(=O)N1` (stereo not drawn), for which the GI50 was > 100 µM (inactive) with 786-0; 86.1 µM (inactive) in the assay on SNB-75; > 100 µM (inactive) in the assay on SF-539; > 100 µM (inactive) in the assay with A549; 20.2 µM (inactive) in the assay on UO-31; > 100 µM (inactive) in the assay with SK-MEL-28. The GI50 in the assay with SW-620, in the assay with SF-295, in the assay on BT-549, in the assay on MCF7, in the assay on KM12 and with UACC-62 was > 100 µM (inactive) each time. The GI50 in the assay on HCC 2998 was > 100 µM (inactive); in the assay with OVCAR-5, > 100 µM (inactive); in the assay on DU-145 it was > 100 µM (inactive); in the assay with LOX IMVI, > 100 µM (inactive); with M14, > 100 µM (inactive); with NCI-H522, 47.4 µM (inactive). Also, the GI50 in the assay on UACC-257 was > 100 µM (inactive).

`CN1CC[N+](C)=C1c1ccccc1`: the GI50 in the assay with 786-0, in the assay on SNB-75, in the assay with SF-539, with A549, in the assay with UO-31 and in the assay with SK-MEL-28 was > 100 µM (inactive) each time. Besides, the GI50 with SW-620, in the assay with SF-295, in the assay on BT-549, in the assay on MCF7, with KM12 and in the assay on HCC 2998 was > 100 µM (inactive) throughout. In addition, the GI50 in the assay on OVCAR-5, with MOLT-4, in the assay on DU-145, in the assay on LOX IMVI, in the assay on M14 and in the assay with NCI-H522 was > 100 µM (inactive) in each case. Besides, the GI50 in the assay on UACC-257 is > 100 µM (inactive).

As to `O=[N+]([O-])c1ccc(Cc2nc3cc4ccccc4cc3[nH]2)cc1C(F)(F)F`, the GI50 in the assay with 786-0 was 12.7 µM (inactive); in the assay with SNB-75, 14.9 µM (inactive); in the assay on SF-539, 16.2 µM (inactive); in the assay on A549, 13.9 µM (inactive); with UO-31 it was 15.8 µM (inactive); with SK-MEL-28, 24.2 µM (inactive). Also, the GI50 in the assay with SW-620 is 19.8 µM (inactive); in the assay with SF-295 it was 11.9 µM (inactive); in the assay on BT-549, 18.2 µM (inactive); in the assay on MCF7, 15.5 µM (inactive); with KM12, 13.4 µM (inactive); with HCC 2998 it was 16.6 µM (inactive). For the same molecule, the GI50 with OVCAR-5 is 14.4 µM (inactive); in the assay on MOLT-4 it was 13.1 µM (inactive); in the assay with DU-145, 22.1 µM (inactive); with LOX IMVI it was 18.5 µM (inactive); in the assay on M14, 12.4 µM (inactive); with NCI-H522, 20.4 µM (inactive). Besides, in the assay on UACC-257, the GI50 is 14.1 µM (inactive).

On to `COC1CC(OC2C(C)OC(OC3C(C)OC(OC4C(C)OC(O[C@H]5CC[C@@]6(C)C(=CC[C@]7(O)[C@@H]6C[C@@H](OC(=O)/C=C(\C)C(C)C)[C@@]6(C)[C@]7(O)CC[C@@]6(O)C(C)=O)C5)CC4OC)CC3OC)CC2OC)OC(C)C1O` (stereo partly drawn), for which the GI50 in the assay with 786-0 was > 12.5 µM (inactive); in the assay with SNB-75, > 12.5 µM (inactive); in the assay with SF-539, > 12.5 µM (inactive); in the assay on A549, > 12.5 µM (inactive); in the assay with UO-31, 4.85 µM (inactive); in the assay on SW-620, > 12.5 µM (inactive). For the same molecule, the GI50 in the assay with SF-295, in the assay on BT-549, in the assay with MCF7, in the assay on KM12, in the assay with UACC-62 and with HCC 2998 was > 12.5 µM (inactive) each time. Besides, the GI50 in the assay with OVCAR-5, with MOLT-4, in the assay on DU-145, with LOX IMVI, in the assay with M14 and in the assay on NCI-H522 was > 12.5 µM (inactive) each time. Also, the GI50 in the assay on UACC-257 is > 12.5 µM (inactive).

Turning to `O=[N+]([O-])c1ccc(-c2ccc([C@H]3CC(c4cc(F)c(Cl)cc4Cl)=NN3)o2)cc1`, the GI50 with 786-0 was 23.7 µM (inactive); in the assay on SNB-75, 15.1 µM (inactive); in the assay with SF-539, 5.38 µM (inactive); in the assay on UO-31, 69.3 µM (inactive); with SW-620 it was 23.6 µM (inactive); in the assay on SF-295, 44.2 µM (inactive). Also, the GI50 was 25.4 µM (inactive) with BT-549; 16.7 µM (inactive) in the assay on MCF7; 0.625 µM (active) with KM12; 21.3 µM (inactive) in the assay on UACC-62; 14.3 µM (inactive) in the assay with HCC 2998; > 100 µM (inactive) in the assay on OVCAR-5. In addition, the GI50 in the assay on MOLT-4 is 1.95 µM (inactive); with DU-145, 26.9 µM (inactive); with LOX IMVI it was 3.63 µM (inactive); in the assay with M14, 13.3 µM (inactive); in the assay on NCI-H522, 16.6 µM (inactive); in the assay with UACC-257 it was 49.4 µM (inactive).

Take `CCc1ccccc1/N=N/C(=O)NNc1ccccc1CC`: the GI50 in the assay on 786-0 is 17.6 µM (inactive); in the assay with SNB-75 it was 19.4 µM (inactive); with A549 it was 14.9 µM (inactive); in the assay on UO-31, 17.3 µM (inactive); in the assay on SK-MEL-28, 17.7 µM (inactive); in the assay with SW-620 it was 17.1 µM (inactive). Also, the GI50 in the assay on BT-549 is 18.4 µM (inactive); in the assay on MCF7, 19.2 µM (inactive); with UACC-62, 10.3 µM (inactive); in the assay with HCC 2998, 15.7 µM (inactive); in the assay on OVCAR-5 it was 14.9 µM (inactive); in the assay on MOLT-4 it was 19.4 µM (inactive). Also, the GI50 was 14.9 µM (inactive) in the assay on DU-145; 18.5 µM (inactive) in the assay with LOX IMVI; 16.9 µM (inactive) with M14; 19.7 µM (inactive) in the assay on NCI-H522; 18.9 µM (inactive) in the assay on UACC-257.

On to `O=c1cc(O)c2c(O)cc(O)cc2o1`, for which the GI50 with 786-0, with SNB-75, with SF-539, in the assay with A549, in the assay with SK-MEL-28 and in the assay with SW-620 was > 100 µM (inactive) in each case. Moreover, the GI50 in the assay on SF-295, in the assay on BT-549, in the assay on MCF7, in the assay on UACC-62, with HCC 2998 and in the assay with OVCAR-5 was > 100 µM (inactive) each time. In addition, the GI50 with MOLT-4, in the assay on DU-145, with LOX IMVI, in the assay with M14, in the assay on NCI-H522 and in the assay on UACC-257 was > 100 µM (inactive) in each case.

For `CCOC(=O)Cn1c(=O)ccn(COCCO)c1=O`, the GI50 in the assay with SNB-75, in the assay with SF-539, in the assay on A549, in the assay on UO-31, with SK-MEL-28 and with SW-620 was > 100 µM (inactive) in each case. Moreover, the GI50 with BT-549, with MCF7, in the assay on KM12, in the assay with HCC 2998, with OVCAR-5 and with MOLT-4 was > 100 µM (inactive) throughout. For the same molecule, the GI50 in the assay with DU-145, in the assay on LOX IMVI, in the assay with M14, with NCI-H522 and with UACC-257 was > 100 µM (inactive) throughout.

Regarding `O=C1C(Cl)=C(NCCc2ccc(O)cc2)C(=O)c2c(O)ccc(O)c21`, the GI50 in the assay on 786-0 was 9.46 µM (inactive); in the assay with SNB-75, > 10 µM (inactive); with SF-539 it was 6.58 µM (inactive); with A549, > 10 µM (inactive); in the assay on SW-620 it was > 10 µM (inactive); in the assay on SF-295, 9.82 µM (inactive). In addition, the GI50 with BT-549 is > 10 µM (inactive); with MCF7, 4.13 µM (inactive); with KM12, 7.28 µM (inactive); with UACC-62, 3.74 µM (inactive); in the assay with HCC 2998, > 10 µM (inactive); in the assay with OVCAR-5, > 10 µM (inactive). The GI50 in the assay with MOLT-4 was > 10 µM (inactive); with DU-145, > 10 µM (inactive); with LOX IMVI, 7.66 µM (inactive); with M14 it was > 10 µM (inactive); with NCI-H522, > 10 µM (inactive); with UACC-257, 4.74 µM (inactive).
